# Reference: patent publication US9066922B2, “Pharmaceutical composition for the treatment or prevention of diseases involving obesity, diabetes, metabolic syndrome, neuro-degenerative diseases and mitochondria dysfunction diseases” (MD BIOALPHA CO., LTD., priority 2005, dated 2015)
# Columns and labels:
# UCP 1 & 2 genes = experiment: Expression of transcripts of UCP1 and UCP2 genes in DIO mice; assay type: in vivo, C57BL/6 mice; conditions: 50 mg/kg daily oral, liver and gonadal adipose tissues
# Method: β-lapachone was administered daily to diet-induced obesity (DIO) mice at a dose of 50 mg/kg via an oral route, and levels of transcripts of uncoupling protein 1 & 2 (UCP 1 & 2) genes in the liver and gonadal adipose tissues was measured using real-time quantitative PCR. UCP 1 & 2 are enzymes that perform energy expenditure via heat generation, and it is reported that these enzymes function to consume energy without involving production of reactive oxygen species (ROS) and are also closely correlated with the incidence of obesity (38,39).
# Sprague-Dawley rats = experiment: Acute toxicity test, peritoneal administration; assay type: in vivo; conditions: peritoneal, 50, 100 and 200 mg/kg, observed for 2 weeks
# [1] = tested on: mRNAs of ACC1, ACC2, FAS, LPL, SCD1; experiment: Expression of genes involved in lipid metabolism in DIO mice (real-time quantitative PCR); assay type: in vivo, C57BL/6 mice; conditions: 50 mg/kg daily oral, vs control group
# Method: In order to investigate anti-obesity effects of β-lapachone, β-lapachone was administered daily to diet-induced obesity (DIO) mice at a dose of 50 mg/kg via an oral route, and an attempt was made to confirm levels of mRNAs of acetyl CoA carboxylase (ACC) 1 (7,8), ACC2 (9), fatty acid synthase (FAS) (10,11), lipoprotein lipase (LPL) (12-15), and stearoyl-CoA desaturase 1 (SCD1) (16,17), which participate in lipid metabolism in the liver and gonadal adipose tissues, by real-time quantitative PCR. These enzymes are very important for lipid metabolism; it is known that ACC catalyzes formation of malonyl CoA from acetyl CoA, FAS catalyzes formation of palmitate from malonyl CoA, and SCD1 catalyzes formation of monounsaturated fat, thus playing a critical role in formation of triacylglycerol, a major energy store. As such, these enzymes are closely correlated with obesity, diabetes, and lipid metabolism-related diseases. […] Therefore, from the results of such increased or decreased expression of genes for the above-mentioned enzymes, it can be inferred that β-lapachone will be therapeutically effective substance for the treatment of metabolic syndromes.
# AMPK [2] = experiment: Determination of AMPK activation in C2C12 myoblast cells (SAMS peptide, [γ-32P]ATP); assay type: cell-based; conditions: differentiated C2C12 myoblast cells, 5 μg/ml, compared with control (DMSO 0.5% = 1)
# Method: Myoblast cells, C2C12, were cultured in DMEM containing 10% bovine calf serum. When a cell density reached a range of about 85% to 90%, the culture medium was replaced with a medium containing 1% bovine calf serum to induce differentiation of cells. The thus-differentiated myoblast cells were treated with samples synthesized in Examples 1 through 29 at a concentration of 5 μg/ml, and compared with a control group. Enzymatic activity of AMPK was determined as follows. Firstly, C2C12 cells were lysed to obtain protein extracts and then ammonium sulfate was added to a final concentration of 30%, thereby precipitating proteins. Protein precipitates were dissolved in a buffer (62.5 mM Hepes, pH 7.2, 62.5 mM NaCl, 62.5 mM NaF, 1.25 mM Na pyrophosphate, 1.25 mM EDTA, 1 mM DTT, 0.1 mM PMSF, and 200 μM AMP). Thereafter, 200 μM SAMS peptide (HMRSAMSGLHLVKRR: the underlined serine residue is a phosphorylation site, as an AMPK phosphorylation site of acetyl-CoA carboxylase) and [γ-32P]ATP were added thereto and reactants were reacted for 10 minutes at 30° C. This was followed by spotting of the resulting reaction solution on p81 phosphocellulose paper. The p81 paper was washed with a 3% phosphoric acid solution and radioactivity thereof was measured. For each reaction condition, reactions involving no SAMS peptide were also conducted and basic values were subtracted from the thus-observed values.
# DIO C57BL/6 mice = experiment: Spontaneous locomotor activity in DIO C57BL/6 mice; assay type: in vivo; conditions: 3 hours after administration, measured for 7 hours, vs vehicle and control groups
# Method: β-lapachone was administered to DIO C57BL/6 mice, and 3 hours later, spontaneous locomotor activity was measured using Versa MAX Activity Monitors & Analyzer (AccuSan Instruments, Columbus, Ohio). The monitor used to measure motion of animals was a 41 cm×41 cm Plexiglas chamber (height: 30 cm) equipped with infrared rays at intervals of 2.5 cm along the x- and y-axes, respectively, whereby 16 scanning lines are respectively arranged on front/rear and right/left sides of the chamber. In order to distinguish between spontaneous locomotor and stereotypic/grooming behavior, animal activity was measured by taking continuous interference of two different scanning lines caused by mice as an effective determination standard. A β-lapachone-administered group, a vehicle-administered group and a control group were respectively placed in each measuring apparatus, and activity and motion of animals were measured for 7 hours. For acclimation of animal to new environment, mice were placed in the apparatus 2 hours prior to measurement.
# AMPK [3] = experiment: Activation of AMPK in liver and gonadal adipose tissues of C57BL/6 mice; assay type: in vivo; conditions: 5 mg/kg via tail veins, 2 hours and 4 hours
# Method: A vehicle and 5 mg/kg of β-lapachone were administered via tail veins to C57BL/6 mice for 2 hours and 4 hours, respectively. Liver and gonadal adipose tissues were removed and activity of AMPK kinase was assayed. A degree of activation was expressed as a CPM value of radioisotopes. Using the same manner, HepG2 cells, a cell line derived from human liver, were treated with 10 μM β-lapachone for 30 min, and then an assay for AMPK kinase activity was carried out.
# AMPK and ACC = experiment: Phosphorylation of AMPK & ACC in DIO C57BL/6 mice (Western blot); assay type: in vivo; conditions: 50 mg/kg daily oral
# Method: In order to investigate anti-obesity effects of β-lapachone, β-lapachone was administered daily to diet-induced obesity (DIO) mice at a dose of 50 mg/kg via an oral route, and effects of β-lapachone on phosphorylation of AMPK and ACC, which play an important role in energy metabolism and lipogenesis in the liver and gonadal adipose tissues, were examined. […] Phosphorylated AMPK is believed to activate metabolism associated with energy. Whereas, it is believed that ACC, which is affected by activation of AMPK, is phosphorylated and lipogenic activity thereof is then inhibited, which will then exert some effects on lipid metabolism including inhibition of obesity.
# [4] = liver and gonadal adipose tissues
compound,measurement,setting,value
"CC1(C)CCC2=C(O1)c1ccccc1C(=O)C2=O [Compound 1, β-Lapachone]",UCP1 mRNA level,UCP 1 & 2 genes,significant increases in mRNA levels
same,UCP2 mRNA level,UCP 1 & 2 genes,significant increases in mRNA levels
same,mortality,Sprague-Dawley rats,none of the animals died
same,expression level of mRNA of ACC1,[1]; [4],remarkably decreased
same,expression level of mRNA of ACC2,[1]; [4],remarkably decreased
same,expression level of mRNA of FAS,[1]; [4],remarkably decreased
same,expression level of mRNA of LPL (listed among decreased),[1]; [4],remarkably decreased
same,expression level of mRNA of SCD1,[1]; [4],remarkably decreased
same,"LPL mRNA levels, increase",[1],2 fold
same,AMPK fold,AMPK [2],2.2 fold
same,spontaneous locomotor activity,DIO C57BL/6 mice,significant difference in motion and locomotor activity
same,AMPK activity in the liver and gonadal adipose tissues,AMPK [3],increased AMPK activity
same,phosphorylation of AMPK and ACC in the gonadal and liver tissues,AMPK and ACC,has an effect on phosphorylation of AMPK and ACC
